In PubChem BioAssay AID1259408 (Genetic Toxicology Data Bank (GENE-TOX), 2018):
Calls of active or inactive are those of the source. The rule behind the calls is not given here.

System: GENE-TOX genotoxicity assays, various organisms and cells
Assay: GENE-TOX mutagenicity studies
Settings: for call: Assay Type: In vivo carcinogenicity studies
[1] = Species/Cell Type: Drosophila melanogaster, Assay Type: Sex-linked recessive lethal gene mutation, Assay Code: SRL+, Evaluation Type: Evaluation A (Pre-1980)
[2] = Species/Cell Type: Nonhuman, Assay Code: CCG+, Evaluation Type: Evaluation A (Pre-1980)
[3] = Species/Cell Type: Rodents, Sex: Male, Assay Type: Dominant lethal test, Assay Code: DLT-, Evaluation Type: Evaluation A (Pre-1980)
[4] = Species/Cell Type: Salmonella typhimurium (one or more of the five standard strains: TA98, TA100, TA1535, TA1537, and TA1538), Assay Type: Histidine reverse gene mutation, Ames assay, Assay Code: SAL+*, Activation: With metabolic activation, Evaluation Type: Evaluation A (Pre-1980)
[5] = Species/Cell Type: Salmonella typhimurium (one or more of the five standard strains: TA98, TA100, TA1535, TA1537, and TA1538), Assay Type: Histidine reverse gene mutation, Ames assay, Assay Code: SAL+, Evaluation Type: Evaluation A (Pre-1980)
[6] = Species/Cell Type: Salmonella typhimurium, Assay Type: Forward and reverse gene mutation, host-mediated assay, Assay Code: HMA+, Evaluation Type: Evaluation A (Pre-1980)
[7] = Species/Cell Type: Saccharomyces cerevisiae, Assay Type: Mitotic recombination or gene conversion, Assay Code: YEH-, Evaluation Type: Evaluation A (Pre-1980)
[8] = Species/Cell Type: Escherichia coli polA (W3119 vs P3478), Assay Type: Rec-assay, DNA effects (bacterial DNA repair), Assay Code: RE1T, Evaluation Type: Evaluation A (Pre-1980)
[9] = Species/Cell Type: Saccharomyces cerevisiae, Assay Type: Mitotic recombination or gene conversion, Assay Code: YEC-, Evaluation Type: Evaluation A (Pre-1980)
[10] = Species/Cell Type: Salmonella typhimurium (one or more of the five standard strains: TA98, TA100, TA1535, TA1537, and TA1538), Assay Type: Histidine reverse gene mutation, Ames assay, Assay Code: SALT, Evaluation Type: Evaluation A (Pre-1980)

Structure (SMILES): COc1ccc(N)cc1N
- mutagenic call [1]: active; positive
- mutagenic call (Species/Cell Type: Mammalian polychromatic erythrocytes, Assay Type: Micronucleus test, chromosome aberrations, Assay Code: MNTT, Evaluation Type: Evaluation A (Pre-1980)): no conclusion
- mutagenic call (Species/Cell Type: Mouse, Sex: Male, Assay Type: Sperm morphology, Assay Code: SPI-, Evaluation Type: Evaluation A (Pre-1980)): inactive; negative
- mutagenic call (Species/Cell Type: Neurospora crassa, Assay Type: Aneuploidy, chromosome aberrations, Assay Code: NEN+, Evaluation Type: Evaluation A (Pre-1980)): active; positive
- call [2]: active; positive
- mutagenic call (Species/Cell Type: Nonhuman, Assay Type: Sister-chromatid exchange (SCE) in vivo, Assay Code: SC3+, Evaluation Type: Evaluation B (Post-1980)): active; positive
- mutagenic call [3]: inactive; negative
- mutagenic call [4]: active; positive

Structure (SMILES): CCc1ccc(O)c(O)c1
- mutagenic call (Species/Cell Type: Allium cepa, Assay Type: Chromosome aberrations, Assay Code: ALC-, Evaluation Type: Evaluation A (Pre-1980)): inactive; negative

Structure (SMILES): CC(=O)Nc1ccc(NC(C)=O)c2c1C(=O)c1ccccc1C2=O
- mutagenic call [4]: active; positive

Structure (SMILES): CC(=O)ON(C)c1ccc(N=Nc2ccccc2)cc1
- mutagenic call [5]: active; positive

Structure (SMILES): CCN(CCCO)N=O
- mutagenic call [4]: active; positive

Structure (SMILES): Cc1ccc2cccnc2c1
- mutagenic call [4]: active; positive

Structure (SMILES): O=[N+]([O-])c1ccc(N2CC2)c2c1no[n+]2[O-]
- mutagenic call [5]: active; positive

Structure (SMILES): [S]=[Cd]
- mutagenic call (Species/Cell Type: Human lymphocytes or leukocytes, Assay Type: Chromosome aberrations in vitro, Assay Code: CY7+, Evaluation Type: Evaluation A (Pre-1980)): active; positive
- call [2]: active; positive

Structure (SMILES): CCCC(=O)Nc1ccc(OCC(O)CNC(C)C)c(C(C)=O)c1 (configuration not stated)
- mutagenic call (Species/Cell Type: Mammalian polychromatic erythrocytes, Assay Type: Micronucleus test, chromosome aberrations, Assay Code: MNT+, Evaluation Type: Evaluation B (Post-1980)): active; positive

Structure (SMILES): Cc1occc(=O)c1O
- mutagenic call (Species/Cell Type: Human lymphocytes, Assay Type: Sister-chromatid exchange (SCE) in vitro, Assay Code: SCL+D, Dose Response: With dose response, Evaluation Type: Evaluation B (Post-1980)): active; positive
- mutagenic call (Species/Cell Type: Human, Assay Type: Sister-chromatid exchange (SCE) in vitro, Assay Code: SC1+D, Dose Response: With dose response, Evaluation Type: Evaluation B (Post-1980)): active; positive

Structure (SMILES): O=C=Nc1ccc2ccccc2c1
- mutagenic call (Species/Cell Type: Nonhuman, Assay Type: Sister-chromatid exchange (SCE) in vitro, Assay Code: SC2+D, Dose Response: With dose response, Evaluation Type: Evaluation B (Post-1980)): active; positive

Structure (SMILES): S=C1SSC2=NCCN12
- mutagenic call (Species/Cell Type: Bacillus subtilis (H17 vs M45), Assay Type: Rec-assay, spot test, DNA effects (bacterial DNA repair), Assay Code: REW+, Evaluation Type: Evaluation A (Pre-1980)): active; positive
- mutagenic call (Species/Cell Type: Human lymphocytes, Assay Type: Sister-chromatid exchange (SCE) in vitro, Assay Code: SCL+, Evaluation Type: Evaluation B (Post-1980)): active; positive
- mutagenic call (Species/Cell Type: Human, Assay Type: Sister-chromatid exchange (SCE) in vitro, Assay Code: SC1+, Evaluation Type: Evaluation B (Post-1980)): active; positive

Structure (SMILES): Nc1ccc(Nc2ccccc2)cc1
- mutagenic call (Species/Cell Type: Neurospora crassa, Assay Type: Aneuploidy, chromosome aberrations, Assay Code: NEN-, Evaluation Type: Evaluation A (Pre-1980)): inactive; negative
- call (Species/Cell Type: Nonhuman, Assay Code: CCG-L, Evaluation Type: Evaluation A (Pre-1980)): inactive; negative

Structure (SMILES): Cc1c2ccccc2c(C2CO2)c2ccccc12 (configuration not stated)
- mutagenic call [5]: active; positive

Structure (SMILES): CN(N=O)C1=Nc2ccc(Cl)cc2C(c2ccccc2)=[N+]([O-])C1
- mutagenic call (Species/Cell Type: Saccharomyces cerevisiae, Assay Type: Mitotic recombination or gene conversion, Assay Code: YEC+*, Activation: With metabolic activation, Evaluation Type: Evaluation A (Pre-1980)): active; positive
- mutagenic call [6]: active; positive

Structure (SMILES): CCCCN(N=O)C(CCC)OC(C)=O (configuration not stated)
- mutagenic call [5]: active; positive

Structure (SMILES): O=c1ccc2ccc3occc3c2o1
- mutagenic call (Species/Cell Type: Mammalian cell culture, nonhuman, Assay Type: Micronucleus test in vitro, chromosome aberrations, Assay Code: MN&+, Evaluation Type: Evaluation A (Pre-1980)): active; positive
- mutagenic call (Species/Cell Type: Saccharomyces cerevisiae, Assay Type: Reverse gene mutation, Assay Code: YERT, Evaluation Type: Evaluation A (Pre-1980)): no conclusion

Structure (SMILES): Cc1c2ccncc2c(C)c2c1[nH]c1ccc(O)cc12
- mutagenic call (Species/Cell Type: Chinese hamster ovary (CHO) cells, Assay Type: Forward gene mutation at the HPRT locus, Assay Code: CHOT, Evaluation Type: Evaluation B (Post-1980)): no conclusion

Structure (SMILES): c1ccc(-c2ccccc2)cc1
- mutagenic call (Species/Cell Type: Human diploid fibroblasts, Assay Type: Unscheduled DNA synthesis (UDS) in vitro, DNA effects, Assay Code: UDH-, Evaluation Type: Evaluation A (Pre-1980)): inactive; negative
- mutagenic call (Species/Cell Type: Nonhuman, Assay Type: Sister-chromatid exchange (SCE) in vitro, Assay Code: SC2+D, Dose Response: With dose response, Evaluation Type: Evaluation A (Pre-1980)): active; positive
- mutagenic call (Species/Cell Type: Rat primary hepatocytes, Assay Type: Unscheduled DNA synthesis (UDS) in vitro, DNA effects, Assay Code: UDP-, Evaluation Type: Evaluation A (Pre-1980)): inactive; negative
- mutagenic call [7]: inactive; negative

Structure (SMILES): Cc1cc(-c2ccccc2C)ccc1N
- mutagenic call (Species/Cell Type: Escherichia coli polA (W3110 vs P3478), Assay Type: Rec-assay, DNA effects (bacterial DNA repair), Assay Code: RE2+, Evaluation Type: Evaluation A (Pre-1980)): active; positive
- mutagenic call [8]: no conclusion
- mutagenic call (Species/Cell Type: Rat primary hepatocytes, Assay Type: Unscheduled DNA synthesis (UDS) in vitro, DNA effects, Assay Code: UDP+, Evaluation Type: Evaluation A (Pre-1980)): active; positive
- mutagenic call [7]: inactive; negative
- mutagenic call [4]: active; positive
- mutagenic call (Species/Cell Type: Salmonella typhimurium, Assay Type: Forward and reverse gene mutation, body fluid assay, Assay Code: BFU+, Evaluation Type: Evaluation A (Pre-1980)): active; positive
- mutagenic call [6]: active; positive
- mutagenic call (Species/Cell Type: Syrian hamster embryo (SHE) cells, Assay Type: Cell transformation, clonal assay, Assay Code: CTC+D, Dose Response: With dose response, Evaluation Type: Evaluation A (Pre-1980)): active; positive

Structure (SMILES): CCCCCCCCCCCCN=C(N)N
- mutagenic call [9]: inactive; negative

Structure (SMILES): Cc1cc(O)c2c(c1)C(=O)c1cc(O)cc(O)c1C2=O
- mutagenic call (Species/Cell Type: Bacillus subtilis (H17 vs M45), Assay Type: Rec-assay, spot test, DNA effects (bacterial DNA repair), Assay Code: REW-, Evaluation Type: Evaluation A (Pre-1980)): inactive; negative
- mutagenic call [8]: no conclusion

Structure (SMILES): Oc1cc(Cl)ccc1Oc1ccc(Cl)cc1Cl
- mutagenic call (Species/Cell Type: Mammalian polychromatic erythrocytes, Assay Type: Micronucleus test, chromosome aberrations, Assay Code: MNTT, Evaluation Type: Evaluation B (Post-1980)): no conclusion
- mutagenic call (Species/Cell Type: Mouse, Sex: Female, Assay Type: Spot test, gene mutation, Assay Code: MST-, Evaluation Type: Evaluation A (Pre-1980)): inactive; negative
- mutagenic call (Species/Cell Type: Saccharomyces cerevisiae, Assay Type: Forward gene mutation, Assay Code: YEF+, Evaluation Type: Evaluation A (Pre-1980)): active; positive
- mutagenic call [9]: inactive; negative
- mutagenic call (Species/Cell Type: Saccharomyces cerevisiae, Assay Type: Mitotic recombination or gene conversion, Assay Code: YEH+, Evaluation Type: Evaluation A (Pre-1980)): active; positive

Structure (SMILES): O=S(=O)(O)c1ccccc1/C=C\c1ccc(-c2ccc(/C=C\c3ccccc3S(=O)(=O)O)cc2)cc1
- mutagenic call [3]: inactive; negative
- mutagenic call (Species/Cell Type: Saccharomyces cerevisiae, Assay Type: Mitotic recombination or gene conversion, Assay Code: YECT, Evaluation Type: Evaluation A (Pre-1980)): no conclusion
- mutagenic call [10]: no conclusion

Structure (SMILES): CN(C)N=Nc1ccc(Br)cc1
- mutagenic call [1]: active; positive
- mutagenic call (Species/Cell Type: Mammalian polychromatic erythrocytes, Assay Type: Micronucleus test, chromosome aberrations, Assay Code: MNT+, Evaluation Type: Evaluation A (Pre-1980)): active; positive
- mutagenic call (Species/Cell Type: Saccharomyces cerevisiae, Assay Type: Mitotic recombination or gene conversion, Assay Code: YEC+, Evaluation Type: Evaluation A (Pre-1980)): active; positive

Structure (SMILES): C[C@@H]1C[C@@]2(O[C@H]2C)C(=O)O[C@@H]2CCN3CC=C(COC(=O)[C@]1(C)O)[C@H]23
- mutagenic call (Species/Cell Type: Allium cepa, Assay Type: Chromosome aberrations, Assay Code: ALC+, Evaluation Type: Evaluation A (Pre-1980)): active; positive
- mutagenic call (Species/Cell Type: Drosophila melanogaster, Assay Type: Sex-linked recessive lethal gene mutation, Assay Code: SRLT, Evaluation Type: Evaluation A (Pre-1980)): no conclusion

Structure (SMILES): Cc1c2c(cc3c1ccc1ccccc13)C=CC(O)C2O (configuration not stated)
- mutagenic call [4]: active; positive

Structure (SMILES): C[As+](C)(C)CC(=O)[O-]
- mutagenic call (Species/Cell Type: Nonhuman, Assay Type: Sister-chromatid exchange (SCE) in vitro, Assay Code: SC2T, Evaluation Type: Evaluation B (Post-1980)): no conclusion

Structure (SMILES): O=S1(=O)CC=CC1
- call (Species/Cell Type: Nonhuman, Assay Code: CCG-, Evaluation Type: Evaluation A (Pre-1980)): inactive; negative

Structure (SMILES): CSCCC(N)C(=O)O (configuration not stated)
- mutagenic call [8]: no conclusion

Structure (SMILES): C=CC1=C(C)/C(=C/c2[nH]c(Cc3[nH]c(/C=C4\NC(=O)C(C)=C4C=C)c(C)c3CCC(=O)O)c(CCC(=O)O)c2C)NC1=O
- mutagenic call (Species/Cell Type: Human lymphocytes, Assay Type: Sister-chromatid exchange (SCE) in vitro, Assay Code: SCL-, Evaluation Type: Evaluation A (Pre-1980)): inactive; negative
- mutagenic call (Species/Cell Type: Human, Assay Type: Sister-chromatid exchange (SCE) in vitro, Assay Code: SC1-, Evaluation Type: Evaluation A (Pre-1980)): inactive; negative

Structure (SMILES): C#CC(O)(c1ccccc1)c1ccccc1
- mutagenic call [10]: no conclusion
